Patent US10280158B2, “Immune adjustment compound, use thereof and pharmaceutical composition comprising same” (SUZHOU CONNECT BIOPHARMACEUTICALS, LTD., priority 2013, dated 2019)

What was measured:
[1] = tested on: lymphocytes in the peripheral blood; test: Effect on the number of lymphocytes in the peripheral blood; format: in vivo, Sprague-Dawley (SD) rats; details: oral, SD rats
Excerpt: S1P1, which is expressed on the surface of lymphocytes, is essential for lymphocytes to leave the secondary lymphoid tissue and then enter into the peripheral circulation. Small molecule agonists of S1P1 can activate the receptor and result in an internalization effect on the receptor. This mechanism is a currently known mechanism by which lymphocytes are prevented from leaving the secondary lymphoid tissue, then resulting in an decreased number of lymphocytes in the peripheral circulation. In order to determine whether the compounds provided by present invention can reduce the number of lymphocytes in the peripheral blood, an in vivo effect experiment on lymphocytes is performed.
An appropriate amount of compound 2 was prepared as a suspension with sodium carboxymethylcellulose (CMC-Na) and was given orally to three Sprague-Dawley (SD) rats. Blood samples (0.5 ml) were collected at 30 min before the administration and at different time points after the administration (the collected blood samples were placed in EP tubes containing an appropriate amount of EDTA-2K solution), and analyzed on ADVIA2120 blood cell analyzer directly.

[2] = tested on: heart rate and QT interval; test: Telemetry assay of cardiovascular function in conscious beagle dog; format: in vivo; details: within 24 hours after administration
Protocol: To determine whether Compound 2 has an effect on heart rate and QT interval, the compound was evaluated in a telemetry assay in conscious beagle dog.
An appropriate amount of CMC-Na was prepared as a 0.5% CMC-Na (w/v) solution with sterilized water for injection. The solution was prepared one day before administration.
Solutions of Compound 2 (samples) with the concentration of 2, 6 and 20 mg/mL were prepared one day before administration as follows. An appropriate amount of Compound 2 was added into an appropriate amount of 0.5% CMC-Na solution. The obtained mixture was emulsified and homogenized on an emulsification isotropic machine. Theoretical concentrations of Compound 2 in the prepared sample solutions were 2, 6 and 20 mg/mL.
A total of 8 animals and a Double Latin squared experimental design were used in this experiment. Administration cycles were separated by 3-5 days. One day before each administration cycle, the animals were weighted and fasted overnight. On the day of administration, telemetry system (Implantable physiological signal telemetry system 1, Data Science International Inc., USA) was turned on, test parameters were set, implants were activated and physiological indexes of the animals were recorded. […] Parameters would be analyzed using artificial set after the collection was completed. The data was, firstly, analyzed by PONEMAH Version 4.8 software automatically, and then checked point by point artificially for selected values. […] Time at which values were selected were recorded.
Statistical software SPSS13.0 was used to process data in this experiment. […] Indexes of blood pressure, electrocardiogram, respiration and body temperature were expressed as “mean±standard error”, and then analyzed according to following procedure: firstly, homogeneity test was performed on the data by use of Levene Test, and if the data was uniform ([…]), single-factor variance analysis was performed; and if the result of variance analysis was significant (P≤0.05), Dunnett's multiple comparison was performed on difference between vehicle group and sample group. […]

CC(C)Cc1ccc(-c2nc(-c3ccc(CN4CC(C(=O)O)C4)c(F)c3)no2)cc1 [Compound 2, 1-{2-fluoro-4-[5-(4-isobutylphenyl)-1,2,4-oxadiazol-3-yl]-benzyl}-3-azetidine carboxylic acid]
number of peripheral mononuclear cells and other leukocytes ([1]; in words): unobviously | reduction of lymphocytes in the peripheral blood ([1]; dose of 0.01 mg/kg): more than 50% | reduction of lymphocytes in the peripheral blood ([1]; dose of 1 mg/kg, in words): the most reduction | number of lymphocytes in the peripheral blood ([1]; three doses, 30 to 480 minutes after administration, in words): reduced the number of lymphocytes in the peripheral blood effectively | QT interval versus vehicle [2]: no significant difference | QTcF interval versus vehicle [2]: no significant difference | heart rate versus vehicle [2]: no significant difference
